Data as given in patent US11542255B2, “Sulfonylureas and sulfonylthioureas as NLRP3 inhibitors” (Inflazome Limited, priority 2017, dated 2023).
Structures can show the parent of a compound that is named as a salt.

Assays:
[1] = PK protocol, intravenous administration; type: in vivo, male Sprague Dawley rats; details: male, Sprague Dawley, rat, plasma, dose (mg/kg); for Vd: read-out: Vdss
Method: Pharmacokinetic parameters were determined in male Sprague Dawley rats (Charles River, UK, 250-350 g; or Vital River Laboratory Animal Technology Co Ltd, Beijing, China, 7-9 weeks old). Animals were individually housed during the study and maintained under a 12 h light/dark cycle. Animals had free access to food and water except that some orally dosed animals were food deprived overnight prior to the study.
For intravenous administration, compounds were formulated as a solution in water or […] in 2 mL/kg dosing volume and administered via tail vein. For oral administration, compounds were formulated as a solution in water or DMSO:water [10:90] in 5 mL/kg dosing volume and administered orally.
Serial blood samples (about 120-300 μL) were taken from each animal at each of 8 time-points post dose (0.083, 0.25, 0.5, 1, 2, 4, 8 and 24 h) or at each of 12 time-points post dose (0.03, 0.1, 0.17, 0.25, 0.5, 1, 2, 4, 6, 8, 12 and 24 h) or pre-dose and at each of 9 time-points post dose (0.25, 0.5, 1, 2, 4, 6, 8, 12 and 24 h). Samples were held on ice for no longer than 30 minutes before centrifugation (10,000 rpm (8,385 g) for 3 minutes; or 5,696 rpm (3,0009 for 15 minutes) for plasma generation. Plasma was frozen on dry ice prior to boanalysis. PK parameters were generated from LC-MS/MS data using Dotmatics or Phoenix WinNonlin 6.3 software.

NLRP3 [2] = biological target: T1, NLRP3 (Homo sapiens, UniProt Q96P20); assay: THP-1 cells pyroptosis assay (LPS + nigericin, resazurin readout); type: cell-based; parameters: Seed THP-1 cells (25,000 cells/well) containing 1.0 μg/ml LPS in 40 μl of RPMI medium; host or cells: THP-1 cells; details: NLRP3 inhibitory activity, 1.0 μg/ml LPS, 5 μM nigericin
Outline: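 LPS-primed (1 μg/ml) THP-1 cells, 25,000/well in serum-free RPMI, given compound (8-point half-log, 10 μM top; 0.1% DMSO) for 3 h at 37 °C, then nigericin 5 μM for 1 h. Viability by resazurin (100 μM, 1-2 h), Ex 560/Em 590 nm; IC50 from 4-parameter variable-slope fit.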

NLRP3 [3] = biological target: T1, NLRP3; assay: Human whole blood IL1β release assay (LPS + nigericin, AlphaLisa IL-1β); type: cell-based; parameters: Human whole blood in Li-heparin tubes was obtained from healthy donors from a volunteer donor panel; from tissue; host or cells: human whole blood from healthy donors; details: NLRP3 inhibitory activity, 1 μg/ml LPS, 10 μM nigericin, IL-1β release, read-out: HWB IC50
Outline: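 Donor human whole blood (Li-heparin) was primed with 1 μg/mL LPS while incubated with compound (8-point half-log, 10 μM top, 0.1% DMSO) for 3 h at 37° C., then stimulated with 10 μM nigericin for 1 h. Supernatant IL-1β measured by AlphaLISA; IC50 from 4-parameter nonlinear fit.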

T1 sequence (Q96P20 whole entry): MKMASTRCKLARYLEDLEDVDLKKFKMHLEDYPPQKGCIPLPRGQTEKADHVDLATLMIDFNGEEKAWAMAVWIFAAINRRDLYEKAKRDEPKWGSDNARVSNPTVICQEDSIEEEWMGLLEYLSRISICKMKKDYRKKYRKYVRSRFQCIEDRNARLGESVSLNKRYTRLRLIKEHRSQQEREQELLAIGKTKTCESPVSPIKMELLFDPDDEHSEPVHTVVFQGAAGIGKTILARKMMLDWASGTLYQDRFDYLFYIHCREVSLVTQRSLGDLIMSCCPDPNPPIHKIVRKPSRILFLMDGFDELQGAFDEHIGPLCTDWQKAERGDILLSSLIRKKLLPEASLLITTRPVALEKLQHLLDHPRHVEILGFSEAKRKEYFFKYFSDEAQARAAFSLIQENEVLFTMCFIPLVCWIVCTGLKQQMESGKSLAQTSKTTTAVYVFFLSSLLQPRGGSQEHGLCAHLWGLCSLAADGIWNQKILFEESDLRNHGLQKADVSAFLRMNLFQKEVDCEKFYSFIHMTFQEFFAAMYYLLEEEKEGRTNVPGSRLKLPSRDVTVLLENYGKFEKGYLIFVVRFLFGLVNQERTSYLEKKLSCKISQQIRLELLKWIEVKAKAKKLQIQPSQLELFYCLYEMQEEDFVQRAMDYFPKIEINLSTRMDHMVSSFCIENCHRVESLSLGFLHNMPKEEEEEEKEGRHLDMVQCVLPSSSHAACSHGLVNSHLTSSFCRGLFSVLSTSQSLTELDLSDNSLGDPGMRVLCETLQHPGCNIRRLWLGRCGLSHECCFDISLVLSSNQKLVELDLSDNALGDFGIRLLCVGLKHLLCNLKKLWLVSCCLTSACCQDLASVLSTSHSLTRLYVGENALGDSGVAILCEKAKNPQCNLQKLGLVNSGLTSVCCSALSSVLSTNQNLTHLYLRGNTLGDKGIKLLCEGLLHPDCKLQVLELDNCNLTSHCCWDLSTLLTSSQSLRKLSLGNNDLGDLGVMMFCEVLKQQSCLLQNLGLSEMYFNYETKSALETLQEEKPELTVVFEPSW

Structure (SMILES): CN(C)CCn1nc(S(=O)(=O)NC(=O)Nc2c3c(cc4c2CCC4)CCC3)cc1C(C)(C)O [Example 4, 1-(2-(Dimethylamino)ethyl)-N-((1,2,3,5,6,7-hexahydro-s-indacen-4-yl)carbamoyl)-5-(2-hydroxypropan-2-yl)-1H-pyrazole-3-sulfonamide]
- AUC [1]: 3780 ng·h/mL
- clearance [1]: 4.4 mL/min/kg
- half-life [1]: 1.6 h
- Vd [1]: 0.12 L/kg
- IC50 (NLRP3 [2]): 40 to 160 nM
- IC50 (NLRP3 [3]): 400 to 800 nM

Structure (SMILES): CC(C)N(C)Cc1cc(S(=O)(=O)NC(=O)Nc2c3c(cc4c2CCC4)CCC3)nn1C [Example 91, N-((1,2,3,5,6,7-Hexahydro-s-indacen-4-yl)carbamoyl)-5-((isopropyl(methyl)amino)methyl)-1-methyl-1H-pyrazole-3-sulfonamide]
- AUC [1]: 2620 ng·h/mL
- clearance [1]: 6.9 mL/min/kg
- half-life [1]: 4.3 h
- Vd [1]: 1.03 L/kg
- IC50 (NLRP3 [2]): 160 to 640 nM
- IC50 (NLRP3 [3]): 400 to 800 nM

Structure (SMILES): CC(C)c1cc(F)cc(C(C)C)c1NC(=O)NS(=O)(=O)c1cc(CN(C)C)n(C)n1 [Example 92, 5-((Dimethylamino)methyl)-N-((4-fluoro-2,6-diisopropyl-phenyl)carbamoyl)-1-methyl-1H-pyrazole-3-sulfonamide, Sodium Salt]
- AUC [1]: 1280 ng·h/mL
- clearance [1]: 13.1 mL/min/kg
- half-life [1]: 3.2 h
- Vd [1]: 2.19 L/kg
- IC50 (NLRP3 [2]): 160 to 640 nM
- IC50 (NLRP3 [3]): < 400 nM

Structure (SMILES): CC(c1cc(S(=O)(=O)NC(=O)Nc2c3c(cc4c2CCC4)CCC3)nn1C(C)C)N(C)C (stereo not drawn) [Example 73, 5-(1-(Dimethylamino)ethyl)-N-((1,2,3,5,6,7-hexahydro-s-indacen-4-yl)carbamoyl)-1-isopropyl-1H-pyrazole-3-sulfonamide]
- AUC [1]: 4250 ng·h/mL
- clearance [1]: 4.3 mL/min/kg
- half-life [1]: 3.5 h
- Vd [1]: 0.51 L/kg
- IC50 (NLRP3 [2]): < 40 nM
- IC50 (NLRP3 [3]): < 400 nM

Structure (SMILES): Cn1nc(S(=O)(=O)NC(=O)Nc2c3c(cc4c2CCC4)CCC3)cc1CN1CCC1 [Example 86, 5-(Azetidin-1-ylmethyl)-N-((1,2,3,5,6,7-hexahydro-s-indacen-4-yl)carbamoyl)-1-methyl-1H-pyrazole-3-sulfonamide, Sodium Salt]
- AUC [1]: 4400 ng·h/mL
- clearance [1]: 3.8 mL/min/kg
- half-life [1]: 3.2 h
- Vd [1]: 0.48 L/kg
- IC50 (NLRP3 [2]): 160 to 640 nM
- IC50 (NLRP3 [3]): 800 to 1600 nM

Structure (SMILES): CC(c1cc(S(=O)(=O)NC(=O)Nc2c3c(cc4c2CCC4)CCC3)nn1C)N(C)C (stereo not drawn) [Example 77, 5-(1-(Dimethylamino)ethyl)-N-((1,2,3,5,6,7-hexahydro-s-indacen-4-yl)carbamoyl)-1-methyl-1H-pyrazole-3-sulfonamide]
- AUC [1]: 4440 ng·h/mL
- clearance [1]: 3.8 mL/min/kg
- half-life [1]: 3.5 h
- Vd [1]: 0.38 L/kg
- IC50 (NLRP3 [2]): < 40 nM
- IC50 (NLRP3 [3]): < 400 nM

Structure (SMILES): CC(C)c1cc(F)cc(C(C)C)c1NC(=O)NS(=O)(=O)c1cc(CN2CCC2)n(C)n1 [Example 88, 5-(Azetidin-1-ylmethyl)-N-((4-fluoro-2,6-diisopropylphenyl)carbamoyl)-1-methyl-1H-pyrazole-3-sulfonamide, Sodium Salt]
- AUC [1]: 1500 ng·h/mL
- clearance [1]: 11.2 mL/min/kg
- half-life [1]: 4.3 h
- Vd [1]: 1.64 L/kg
- IC50 (NLRP3 [2]): 160 to 640 nM
- IC50 (NLRP3 [3]): < 400 nM

Structure (SMILES): O=C(Nc1c2c(cc3c1CCC3)CCC2)NS(=O)(=O)c1cc(CN2CCC2)n(C2CC2)n1 [Example 30, 5-(Azetidin-1-ylmethyl)-1-cyclopropyl-N-((1,2,3,5,6,7-hexahydro-s-indacen-4-yl)carbamoyl)-1H-pyrazole-3-sulfonamide]
- AUC [1]: 6210 ng·h/mL
- clearance [1]: 2.7 mL/min/kg
- half-life [1]: 2.8 h
- Vd [1]: 0.53 L/kg
- IC50 (NLRP3 [2]): 40 to 160 nM
- IC50 (NLRP3 [3]): 400 to 800 nM

Structure (SMILES): CCC(c1cc(S(=O)(=O)NC(=O)Nc2c3c(cc4c2CCC4)CCC3)nn1C1CC1)N(C)C (stereo not drawn) [Example 24, 1-Cyclopropyl-5-(1-(dimethylamino)propyl)-N-((1,2,3,5,6,7-hexahydro-s-indacen-4-yl)carbamoyl)-1H-pyrazole-3-sulfonamide]
- AUC [1]: 1280 ng·h/mL
- clearance [1]: 13 mL/min/kg
- half-life [1]: 1 h
- Vd [1]: 0.84 L/kg
- IC50 (NLRP3 [2]): < 40 nM
- IC50 (NLRP3 [3]): < 400 nM

Structure (SMILES): Cn1nc(S(=O)(=O)[N-]C(=O)Nc2c3c(cc4c2CCC4)CCC3)cc1C[N+](C)(C)C [Example 44, ((1,2,3,5,6,7-Hexahydro-s-indacen-4-yl)carbamoyl)((1-methyl-5-((trimethylammonio)methyl)-1H-pyrazol-3-yl)sulfonyl)amide]
- AUC [1]: 3120 ng·h/mL
- clearance [1]: 5.3 mL/min/kg
- half-life [1]: 1.2 h
- Vd [1]: 0.21 L/kg
- IC50 (NLRP3 [2]): 640 to 2560 nM
- IC50 (NLRP3 [3]): < 400 nM

Structure (SMILES): CCN(C)Cc1cc(S(=O)(=O)NC(=O)Nc2c3c(cc4c2CCC4)CCC3)nn1C [Example 84, 5-((Ethyl(methyl)amino)methyl)-N-((1,2,3,5,6,7-hexahydro-s-indacen-4-yl)carbamoyl)-1-methyl-1H-pyrazole-3-sulfonamide]
- AUC [1]: 2490 ng·h/mL
- clearance [1]: 6.7 mL/min/kg
- half-life [1]: 1 h
- Vd [1]: 0.47 L/kg
- IC50 (NLRP3 [2]): 40 to 160 nM
- IC50 (NLRP3 [3]): 400 to 800 nM

Structure (SMILES): CN(C)CCn1nc(S(=O)(=O)NC(=O)Nc2c3c(cc4c2CCC4)CCC3)cc1CN(C)C [Example 3, 1-(2-(Dimethylamino)ethyl)-5-((dimethylamino)methyl)-N-((1,2,3,5,6,7-hexahydro-s-indacen-4-yl)carbamoyl)-1H-pyrazole-3-sulfonamide]
- AUC [1]: 1130 ng·h/mL
- clearance [1]: 37 mL/min/kg
- half-life [1]: 1.3 h
- Vd [1]: 1.32 L/kg
- IC50 (NLRP3 [2]): < 40 nM
- IC50 (NLRP3 [3]): < 400 nM

Structure (SMILES): CCC(c1cc(S(=O)(=O)NC(=O)Nc2c3c(cc4c2CCC4)CCC3)nn1C(C)C)N(C)C (stereo not drawn) [Example 63, 5-(1-(Dimethylamino)propyl)-N-((1,2,3,5,6,7-hexahydro-s-indacen-4-yl)carbamoyl)-1-isopropyl-1H-pyrazole-3-sulfonamide]
- AUC [1]: 4010 ng·h/mL
- clearance [1]: 4.2 mL/min/kg
- half-life [1]: 0.8 h
- Vd [1]: 0.25 L/kg
- IC50 (NLRP3 [2]): < 40 nM
- IC50 (NLRP3 [3]): < 400 nM

Structure (SMILES): CCC(c1cc(S(=O)(=O)NC(=O)Nc2c3c(cc4c2CCC4)CCC3)nn1C)N(C)C (single isomer, unassigned; enantiomer 2) [Example 72, 5-(1-(Dimethylamino)propyl)-N-((1,2,3,5,6,7-hexahydro-s-indacen-4-yl)carbamoyl)-1-methyl-1H-pyrazole-3-sulfonamide, Enantiomer 2]
- AUC [1]: 2780 ng·h/mL
- clearance [1]: 8.5 mL/min/kg
- half-life [1]: 2.4 h
- Vd [1]: 0.51 L/kg
- IC50 (NLRP3 [2]): < 40 nM
- IC50 (NLRP3 [3]): < 400 nM

Structure (SMILES): CCn1nc(S(=O)(=O)NC(=O)Nc2c3c(cc4c2CCC4)CCC3)cc1CN1CCC1 [Example 49, 5-(Azetidin-1-ylmethyl)-1-ethyl-N-((1,2,3,5,6,7-hexahydro-s-indacen-4-yl)carbamoyl)-1H-pyrazole-3-sulfonamide]
- AUC [1]: 6630 ng·h/mL
- clearance [1]: 2.7 mL/min/kg
- half-life [1]: 2.2 h
- Vd [1]: 0.34 L/kg
- IC50 (NLRP3 [2]): 40 to 160 nM
- IC50 (NLRP3 [3]): < 400 nM

Structure (SMILES): CCN(C)Cc1cc(S(=O)(=O)NC(=O)Nc2c(C(C)C)cc(F)cc2C(C)C)nn1C [Example 89, 5-((Ethyl(methyl)amino)methyl)-N-((4-fluoro-2,6-diisopropylphenyl)carbamoyl)-1-methyl-1H-pyrazole-3-sulfonamide, sodium Salt]
- AUC [1]: 1020 ng·h/mL
- clearance [1]: 16.3 mL/min/kg
- half-life [1]: 1.4 h
- Vd [1]: 1.4 L/kg
- IC50 (NLRP3 [2]): 160 to 640 nM
- IC50 (NLRP3 [3]): < 400 nM

Structure (SMILES): CCn1nc(S(=O)(=O)NC(=O)Nc2c3c(cc4c2CCC4)CCC3)cc1CN(C)C [Example 52, 5-((Dimethylamino)methyl)-1-ethyl-N-((1,2,3,5,6,7-hexahydro-s-indacen-4-yl)carbamoyl)-1H-pyrazole-3-sulfonamide]
- AUC [1]: 7970 ng·h/mL
- clearance [1]: 3.5 mL/min/kg
- half-life [1]: 1.5 h
- Vd [1]: 0.39 L/kg
- IC50 (NLRP3 [2]): < 40 nM
- IC50 (NLRP3 [3]): < 400 nM

Structure (SMILES): CC(c1cc(S(=O)(=O)NC(=O)Nc2c3c(cc4c2CCC4)CCC3)nn1C)N1CCC1 (single isomer, unassigned; enantiomer 2) [Example 27, 5-(1-(Azetidin-1-yl)ethyl)-N-((1,2,3,5,6,7-hexahydro-s-indacen-4-yl)carbamoyl)-1-methyl-1H-pyrazole-3-sulfonamide, Sodium Salt (Enantiomer 2)]
- AUC [1]: 3900 ng·h/mL
- clearance [1]: 4.3 mL/min/kg
- half-life [1]: 1.1 h
- Vd [1]: 0.33 L/kg
- IC50 (NLRP3 [2]): 40 to 160 nM
- IC50 (NLRP3 [3]): < 400 nM
